# “And” between values parts separate entries of the source, which are not always exact repeats. Equal entries are not always repeated. Structures can show the parent of a compound that is named as a salt. Where two headings read alike, the source gives them in different places.
# Assay: Pharmacokinetic test in rats, intravenous injection
# Type: in vivo, SD rats
# Details: for concentration at 0.25 h / concentration at 0.5 h / concentration at 1 h / concentration at 2 h / concentration at 3 h: Sprague-Dawley, intravenous, 2 mg/kg iv
# Method: The preferred compound of the present disclosure was assessed in rats for its pharmacokinetic profile.
# SD rats, male and female, weighing 150 to 250 g
# Mobile phase: 10 mM ammonium formate aqueous solution:methanol=15:85
# The ionization source was electrospray ionization source. The detection mode was positive mode. Multiple reaction monitoring (MRM) was used as the scanning mode. The ion reaction for the quantitative analysis was the following: m/z was 305.2\150.0 for XX, and 256.1\167.1 for diphenhydramine (the internal standard).
# Four male SD rats were taken. The dosage was calculated as 5 mL/kg body weight and 2 mg/kg. XX or YY was dissolved in DMSO (3% of a total volume) and castor oil (3% of the total volume) was added to the solution, followed by agitating with a vortex mixer. Subsequently, saline was added to the mixture to the total volume to afford the intravenous injection for the rats. The injections were intravenously administered to four male SD rats. Blood from the rats' orbits was collected 3 min, 8 min, 15 min, 30 min, 1 hr, 2 hr, 3 hr, 4 hr, 6 hr, 9 hr, 12 hr and 24 hr later after the injection, respectively.
# After the blood collection, the tubes were immediately gently turned upside down at least five times to ensure sufficient mixing, and placed on ice. Heparin was added for anticoagulation. The samples were centrifuged at 8000 rpm for 5 min to separate serum from erythrocyte. The serum was transferred with a pipettor to 2 mL polypropylene (PP) tubes, which were marked with the name of the compound and the time points, and stored in a refrigerator at −40° C. before LC-MS analysis. Samples with high concentrations were diluted with rat blank plasma.
# 2.5 μL of Meth-H2O and 5 μL of the internal standard solution (20 ng/mL, IS) were added to 50 μL of the plasma. Subsequently, 150 μL of methanol was added to the mixture to precipitate protein and the samples were then centrifuged at 13000 rpm for 5 min. The upper organic phase was taken out, filtrated with a 0.22 μM microporous membrane, and 2 μL of the sample was injected for the LC-MS analysis.
# [1] = male, rat, plasma, 2 mg/kg, individual rats, read-out: Concentrations in Plasma of Rats after Intravenous Injection
# [2] = male, rat, plasma, 2 mg/kg, mean, read-out: Concentrations in Plasma of Rats after Intravenous Injection, Mean ± SD
# [3] = rats, iv 2 mg/kg, individual rats, 2 mg/kg
structure (smiles),measurement,setting,value
"[2H]C([2H])([2H])c1ccc(Sc2ccccc2N2CCNCC2)c(C([2H])([2H])[2H])c1 [XX, 1-{2-[2,4-bis(trideuteriomethyl)phenylsulfanyl]phenyl}piperazine hydrobromic acid salt]",AUC(0-inf),"male, SD, rat, plasma, iv, 2 mg/kg, rats, iv 2 mg/kg, XX n = 4, YY n = 3, read-out: AUC0-∞, Mean ± SD",482 ± 23.6 ng·h/mL
same,Cmax,"male, SD, rat, plasma, iv, 2 mg/kg, rats, iv 2 mg/kg, XX n = 4, YY n = 3, read-out: Cmax, Mean ± SD",126 ± 5.68 ng/mL
same,MRT inf,"male, SD, rat, plasma, iv, 2 mg/kg, rats, iv 2 mg/kg, XX n = 4, YY n = 3, read-out: MRT0-∞, Mean ± SD",6.87 ± 0.84 h
same,Vd,"male, SD, rat, plasma, iv, 2 mg/kg, rats, iv 2 mg/kg, XX n = 4, YY n = 3, read-out: Vz, Mean ± SD",32.9 ± 9.76 L/kg
same,half-life,"male, SD, rat, plasma, iv, 2 mg/kg, rats, iv 2 mg/kg, XX n = 4, YY n = 3, read-out: t1/2, Mean ± SD (converted)",5.47 ± 1.49 h
same,AUC(0-t),"male, SD, rat, plasma, iv, 2 mg/kg, rats, iv 2 mg/kg, individual rats 1-4 (Table 9), read-out: AUC0-1",462 ng·h/mL
same,AUC(0-inf),"male, SD, rat, plasma, iv, 2 mg/kg, rats, iv 2 mg/kg, individual rats, read-out: AUC0-∞",467 ng·h/mL
same,Cmax,"male, SD, rat, plasma, iv, 2 mg/kg, rats, iv 2 mg/kg, individual rats, read-out: Cmax",134 ng/mL
same,MRT inf,"male, SD, rat, plasma, iv, 2 mg/kg, rats, iv 2 mg/kg, individual rats, read-out: MRT0-∞",6.59 h
same,Vd,"male, SD, rat, plasma, iv, 2 mg/kg, rats, iv 2 mg/kg, individual rats, read-out: Vz",23 L/kg
same,half-life,"male, SD, rat, plasma, iv, 2 mg/kg, rats, iv 2 mg/kg, individual rats, read-out: t1/2 (converted)",3.72 h
same,AUC(0-t),"male, SD, rat, plasma, iv, 2 mg/kg, rats, iv 2 mg/kg, n = 4 (Table 9), read-out: AUC0-1, Mean ± SD",461 ± 29.5 ng·h/mL
same,concentration at 0.25 h,[1],78.1 ng/mL
same,concentration at 0.25 h,[2],77.8 ± 0.78 ng/mL
same,concentration at 0.5 h,[1],76.6 ng/mL
same,concentration at 0.5 h,[2],75.2 ± 2.61 ng/mL
same,concentration at 1 h,[1],72.2 ng/mL
same,concentration at 1 h,[2],69.9 ± 3.51 ng/mL
same,concentration at 2 h,[1],60.7 ng/mL
same,concentration at 2 h,[2],63.2 ± 7.01 ng/mL
same,concentration at 3 h,[1],49.6 ng/mL
same,concentration at 3 h,[2],47.8 ± 6.6 ng/mL
same,"CL, Mean ± SD","rats, iv 2 mg/kg, XX n = 4, YY n = 3",4.16 ± 0.20 L/h/k
same,AUC0-1,"rats, iv 2 mg/kg, individual rats 1-4 (Table 9), 2 mg/kg",492.9 ng·h/mL and 466.0 ng·h/mL and 421.5 ng·h/mL
same,AUC0-∞,[3],512.0 ng·h/mL and 489.7 ng·h/mL and 459.8 ng·h/mL
same,CL,[3],42.8 L/h/k and 3.91 L/h/k and 4.09 L/h/k and 4.35 L/h/k
same,Cmax,[3],123.2 ng/mL and 127.2 ng/mL and 121.4 ng/mL
same,MRT0-∞,[3],6.14 h and 6.67 h and 8.08 h
same,Vz,[3],29.0 L/kg and 33.4 L/kg and 46.0 L/kg
same,t1/2,[3],5.15 h and 5.66 h and 7.33 h

# — patent publication US9896423B2, “Deuterium substituted 1-[2-(2,4-dimethyl-phenylsulfanyl)-phenyl]piperazine compound or derivatives thereof, and pharmaceutical composition and use thereof” (Jiangsu Jibeier Pharmaceutical Co. Ltd., priority 2014, dated 2018)
